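Test compounds were applied to cells in 96-well plates for 48 hours at 5 doses. Abbreviation: GI50, concentration required for 50% inhibition of growth.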 Activity calls are given as the source filed them. No stated cut-off is given here; in the data, active = GI50 up to about 1.1 µM and inactive = higher.
Key:
Assay in all cases: inhibition of tumour cell growth, NCI panel, 48 h
[1] = test system: HOP-62
[2] = test system: KM12
[3] = test system: 786-0
[4] = test system: MDA-MB-435
[5] = test system: SK-MEL-5
[6] = test system: SF-295
[7] = test system: HOP-92
[8] = test system: U-251
[9] = test system: COLO 205
[10] = test system: OVCAR-5
[11] = test system: NCI-H460
[12] = test system: LOX IMVI
[13] = test system: MDA-N
[14] = test system: NCI/ADR-RES
[15] = test system: Malme-3M
[16] = test system: SR
[17] = test system: A549
[18] = test system: PC-3
[19] = test system: NCI-H226
[20] = test system: UACC-257
[21] = test system: EKVX
[22] = test system: HCT-15
[23] = test system: SF-268
[24] = test system: M14
[25] = test system: A498
[26] = test system: SN12C
[27] = test system: UO-31
[28] = test system: HCT-116
[29] = test system: OVCAR-3
[30] = test system: DU-145
[31] = test system: CAKI-1
[32] = test system: Hs-578T
[33] = test system: NCI-H522
[34] = test system: RPMI-8226
[35] = test system: MDA-MB-231
[36] = test system: HT-29
[37] = test system: SF-539
[38] = test system: SK-MEL-2
[39] = test system: HL-60
[40] = test system: MOLT-4
[41] = test system: SNB-19
[42] = test system: SK-MEL-28
[43] = test system: MCF7
[44] = test system: SW-620
[45] = test system: BT-549
[46] = test system: TK-10
[47] = test system: ACHN
[48] = test system: OVCAR-4
[49] = test system: IGROV-1
[50] = test system: OVCAR-8
[51] = test system: NCI-H23
[52] = test system: K562
[53] = test system: UACC-62
[54] = test system: RXF 393
[55] = test system: HCC 2998
[56] = test system: SNB-75
[57] = test system: SK-OV-3
[58] = test system: CCRF-CEM
[59] = test system: T47D

Compound: CC(=O)C(C(C)=O)[C@@H]1OC(C)(C)O[C@@H]1[C@H]1COC(C)(C)O1
- GI50 [1]: 45.9 µM (inactive)
- GI50 [2]: 41.4 µM (inactive)
- GI50 [3]: 32.1 µM (inactive)
- GI50 [4]: 38.7 µM (inactive)
- GI50 [5]: 47.8 µM (inactive)
- GI50 [6]: > 100 µM (inactive)
- GI50 [7]: > 100 µM (inactive)
- GI50 [8]: 42.8 µM (inactive)
- GI50 [9]: 43.5 µM (inactive)
- GI50 [10]: 87.9 µM (inactive)
- GI50 [11]: 61.5 µM (inactive)
- GI50 [12]: 87.1 µM (inactive)
- GI50 [13]: 23.3 µM (inactive)
- GI50 [14]: 55.6 µM (inactive)
- GI50 [15]: 22.5 µM (inactive)
- GI50 [16]: 38.8 µM (inactive)
- GI50 [17]: > 100 µM (inactive)
- GI50 [18]: 43.6 µM (inactive)
- GI50 [19]: > 100 µM (inactive)
- GI50 [20]: 64 µM (inactive)
- GI50 [21]: 27.7 µM (inactive)
- GI50 [22]: 41.5 µM
- GI50 [23]: 30.1 µM (inactive)
- GI50 [24]: 47.4 µM (inactive)
- GI50 [25]: 93.3 µM (inactive)
- GI50 [26]: 20.8 µM (inactive)
- GI50 [27]: 55.2 µM (inactive)
- GI50 [28]: 30.9 µM (inactive)
- GI50 [29]: 62.8 µM (inactive)
- GI50 [30]: 51.8 µM (inactive)
- GI50 [31]: 53.2 µM (inactive)
- GI50 [32]: 28.4 µM (inactive)
- GI50 [33]: 26.9 µM (inactive)
- GI50 [34]: 34.7 µM (inactive)
- GI50 [35]: > 100 µM (inactive)
- GI50 [36]: 32.8 µM (inactive)
- GI50 [37]: > 100 µM (inactive)
- GI50 [38]: 28.5 µM (inactive)
- GI50 [39]: 26.6 µM (inactive)
- GI50 [40]: 47.5 µM (inactive)
- GI50 [41]: 64.1 µM (inactive)
- GI50 [42]: 60.3 µM (inactive)
- GI50 [43]: 43.8 µM (inactive)
- GI50 [44]: 36.6 µM (inactive)
- GI50 [45]: 34.9 µM (inactive)
- GI50 [46]: > 100 µM (inactive)
- GI50 [47]: > 100 µM (inactive)
- GI50 [48]: 51.1 µM (inactive)
- GI50 [49]: 35.6 µM (inactive)
- GI50 [50]: 40.6 µM (inactive)
- GI50 [51]: 34 µM (inactive)
- GI50 [52]: 30.2 µM (inactive)
- GI50 [53]: > 100 µM (inactive)
- GI50 [54]: 51.8 µM (inactive)
- GI50 [55]: > 100 µM (inactive)

Compound: CC(N/N=C(\S)N1CCN(c2ccccn2)CC1)c1nccc2ccccc12 (stereo not drawn)
- GI50 [1]: 2.86 µM (inactive)
- GI50 [2]: 3.16 µM (inactive)
- GI50 [3]: 0.693 µM (active)
- GI50 [4]: 1.66 µM (inactive)
- GI50 [5]: 0.897 µM (active)
- GI50 [6]: 1.3 µM (inactive)
- GI50 [7]: 0.957 µM (active)
- GI50 [8]: 0.385 µM (active)
- GI50 [9]: 0.119 µM (active)
- GI50 [10]: 0.453 µM (active)
- GI50 [11]: 0.593 µM (active)
- GI50 [12]: 0.804 µM (active)
- GI50 [14]: < 0.0216 µM (active)
- GI50 [15]: 1.03 µM (active)
- GI50 [16]: < 0.0218 µM (active)
- GI50 [17]: 1.65 µM (inactive)
- GI50 [18]: 0.589 µM (active)
- GI50 [19]: 1.83 µM (inactive)
- GI50 [20]: 0.0318 µM (active)
- GI50 [22]: 0.641 µM
- GI50 [23]: 0.514 µM (active)
- GI50 [24]: 0.045 µM (active)
- GI50 [25]: 5.71 µM (inactive)
- GI50 [26]: 0.927 µM (active)
- GI50 [56]: 6.43 µM (inactive)
- GI50 [27]: 1.06 µM (active)
- GI50 [29]: < 0.0121 µM (active)
- GI50 [30]: 1.32 µM (inactive)
- GI50 [31]: 1.61 µM (inactive)
- GI50 [32]: 12.9 µM (inactive)
- GI50 [33]: 0.0782 µM (active)
- GI50 [36]: < 0.01 µM (active)
- GI50 [37]: 0.646 µM (active)
- GI50 [38]: 4.23 µM (inactive)
- GI50 [39]: < 0.01 µM (active)
- GI50 [40]: < 0.01 µM (active)
- GI50 [41]: 2.56 µM (inactive)
- GI50 [42]: 2.61 µM (inactive)
- GI50 [57]: 0.241 µM (active)
- GI50 [43]: 1.07 µM (active)
- GI50 [44]: 0.316 µM (active)
- GI50 [45]: 10.4 µM (inactive)
- GI50 [46]: 1.64 µM (inactive)
- GI50 [47]: 0.838 µM (active)
- GI50 [48]: 0.678 µM (active)
- GI50 [58]: < 0.01 µM (active)
- GI50 [50]: 0.104 µM (active)
- GI50 [51]: 1.79 µM (inactive)
- GI50 [52]: < 0.01 µM (active)
- GI50 [53]: 0.305 µM (active)
- GI50 [54]: 0.908 µM (active)
- GI50 [59]: < 0.01 µM (active)
- GI50 [55]: 0.769 µM (active)
